According to PubChem BioAssay (NCI):
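Cultured in 96-well plates, cells were exposed to test compound for 48 hours across five concentrations. At the GI50, growth is halved. TGI: concentration producing complete growth inhibition.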 Residues, ends and D or L forms follow the SMILES beside them. *: point of attachment. Cbz = O=C(OCc1ccccc1)*

How the values were obtained:
Assay in all cases: inhibition of tumour cell growth, NCI panel, 48 h
[1] = tested on: HOP-92 NSCLC
[2] = tested on: MOLT-4 leukemia
[3] = tested on: SNB-75 CNS
[4] = tested on: IGROV1 ovarian
[5] = tested on: NCI-H460 lung
[6] = tested on: ACHN renal
[7] = tested on: MDA-MB-435
[8] = tested on: KM12 colon
[9] = tested on: SR leukemia
[10] = tested on: EKVX NSCLC

Structure (SMILES) | GI50 [1] | TGI [1] | GI50 [2] | TGI [2] | GI50 [3] | TGI [3] | GI50 [4] | TGI [4] | GI50 [5] | TGI [5] | GI50 [6] | TGI [6] | GI50 [7] | TGI [7] | GI50 [8] | TGI [8] | GI50 [9] | TGI [9] | TGI [10] | GI50 [10]
Cc1c2c(nn1-c1ccc(S(=O)(=O)NC(=S)NC(=O)c3ccccc3)cc1)-c1ccccc1CC2 | > 100 µM | > 100 µM | > 100 µM | > 100 µM | 59.5 µM | > 100 µM | > 100 µM | > 100 µM | 45.1 µM | > 100 µM | 41 µM | > 100 µM | 27.9 µM | 91.4 µM | 34.5 µM | > 100 µM | 0.759 µM | > 100 µM |  | 
O=c1cccc2n1CC1CNC[C@H]2C1 |  | > 100 µM |  | > 100 µM |  | > 100 µM |  | > 100 µM |  | > 100 µM |  | > 100 µM |  | > 100 µM |  | > 100 µM |  |  | > 100 µM | 
CC(=O)OCCCC#CC#Cc1cccc(=O)o1 | 19.8 µM | 37.8 µM | 6.59 µM | > 100 µM | 29.1 µM | 67.2 µM | 18.7 µM | > 100 µM | 20 µM | 42.2 µM | 19.2 µM | 35 µM | 16 µM | 31.4 µM | 16 µM | 30.9 µM |  |  | 36.4 µM | 16.9 µM
C=C1C(=O)C2=CC1CCC(=O)C1(C)CCC(OC(C)=O)C(C)(C)C1CC2O (stereo not given) |  | 20.3 µM |  |  |  | 24.8 µM |  | 14.1 µM |  | 4.64 µM |  | 6.82 µM |  | 26 µM |  | 15.9 µM |  |  | 18.9 µM | 
NCCSC(c1ccccc1)(c1ccccc1)c1ccccc1 |  |  | 2.3 µM | 7.1 µM | 1.73 µM | 5.31 µM | 1.25 µM | 8.32 µM | 1.31 µM | 4.01 µM | 1.48 µM | 11.2 µM | 0.242 µM | 0.55 µM | 1.84 µM | 4.82 µM | 0.34 µM | 1.82 µM |  | 
CC(C)C[C@@H](C=O)NC(=O)[C@H](CC(C)C)NC(=O)[C@H](CC(C)C)NC(=O)OCc1ccccc1 (Cbz-Leu-Leu-Leu-aldehyde) | 0.319 µM | 0.797 µM | 0.322 µM | 11.9 µM |  |  | 0.444 µM | 3.08 µM | 0.455 µM | 2.02 µM | 0.357 µM | 1.98 µM |  |  | 0.281 µM | 0.751 µM | 0.366 µM | 86.6 µM | > 100 µM | 0.682 µM
COc1cc(O)c2c(c1)C(=O)C1=C(C2=O)C(O)C[C@@](C)(O)C1 (stereo not given in full) |  | 3.57 µM |  | 7.63 µM |  |  |  | 3.71 µM |  | 4.96 µM |  | 4.46 µM |  |  |  | 8.91 µM |  | 6.14 µM | 13.1 µM | 
Cc1ccc(OCCOCCOCCOCCOCCOc2ccc(C)n(O)c2=S)c(=S)n1O | 3.06 µM | 54.5 µM | 0.0422 µM | > 100 µM | 0.456 µM | 18.1 µM | 0.0372 µM | > 72.5 µM | 0.0252 µM | 11.6 µM | 0.0494 µM | > 87.2 µM | 0.186 µM | 52.6 µM | 0.0573 µM | 39.1 µM |  |  | > 100 µM | 0.0392 µM
COc1ccc2nc3cccc([N+](=O)[O-])c3c(NC(C)CN(C)C)c2c1 (stereo not given) | 2.38 µM | 5.68 µM | 1.23 µM | 4.13 µM | 2.25 µM | 5.55 µM | 1.67 µM | 5.54 µM | 0.51 µM | 3.73 µM | 1.58 µM | 7.23 µM |  |  | 2.18 µM | 6.65 µM | 2.16 µM |  | 34.4 µM | 6.96 µM
C=C1CC2(CCS(=O)(=O)c3ccccc32)OC1=O (stereo not given) |  | 14.2 µM |  | 15 µM |  |  |  | 34.1 µM |  | 35.3 µM |  | 23.7 µM |  |  |  | 37.8 µM |  |  | 33.1 µM | 
O=C1c2cc(F)ccc2-c2c1c1ccc([N+](=O)[O-])cc1c(=O)n2CCCBr |  |  | 2.8 µM | 14.2 µM | 2.97 µM | 50.5 µM | 17.4 µM | > 100 µM | 4.56 µM | > 100 µM | 3.91 µM | > 100 µM | 37.5 µM | > 100 µM | 20.9 µM | > 100 µM | 0.0885 µM | 1.74 µM | > 100 µM | > 100 µM
Cc1ccc(Sc2ccccc2N)cc1 |  | 54.7 µM |  | 58.4 µM |  | > 100 µM |  | > 100 µM |  | > 100 µM |  | > 100 µM |  |  |  | > 100 µM |  |  | > 100 µM | 
O=C(CSSCC(=O)Nc1ccc(Br)cc1)Nc1ccc(Br)cc1 |  | 34.1 µM |  | 67 µM |  | 40.1 µM |  | 39 µM |  | 37.7 µM |  | 30 µM |  |  |  | 55.4 µM |  | 37.9 µM | 48.9 µM | 
CCOC(=O)CN(c1ccccc1)c1nc(=[N+](C)C)ss1 |  |  |  | 28.2 µM |  | > 100 µM |  |  |  |  |  | > 100 µM |  |  |  |  |  | 41.9 µM |  | 
N#CCc1nnc(N)o1 |  | > 100 µM |  | > 100 µM |  | > 100 µM |  | > 100 µM |  |  |  | > 100 µM |  |  |  | > 100 µM |  | > 100 µM | > 100 µM | 
COc1cccc(C2SCc3nc4ccccc4n32)c1 (stereo not given) |  | 69.8 µM |  | > 100 µM |  | > 100 µM |  | > 100 µM |  | > 100 µM |  | > 100 µM |  |  |  | > 100 µM |  |  | > 100 µM | 
COC(=O)C1[C@H](c2ccc3c(c2)OCO3)OC(=O)[C@]1(C(=O)OC)C(=O)c1ccc(OC)c(OC)c1 (stereo not given in full) |  | > 100 µM |  | 87.2 µM |  | > 100 µM |  | > 100 µM |  | > 100 µM |  | > 100 µM |  |  |  | > 100 µM |  | > 100 µM | > 100 µM | 
COC(=O)CNc1nc(N(C)O)nc(N(C)O)n1 | > 100 µM | > 100 µM | 1.69 µM | > 100 µM | 4.2 µM | > 100 µM | 7.38 µM | 39.4 µM | 0.557 µM | > 100 µM | 1.35 µM | > 100 µM | 10.5 µM | > 100 µM | 5.65 µM | > 100 µM |  |  | > 100 µM | 3.31 µM
c1ccc2c(CNCCCCCCCCNCc3cccc4ccccc34)cccc2c1 |  | 9.92 µM |  | 9.64 µM |  | 3.35 µM |  | 16.2 µM |  | 2.8 µM |  | 8.36 µM |  |  |  | 3.24 µM |  |  | 18.8 µM | 
